Reference: article PMC9189845, “Structure–Activity Relationships of 8-Hydroxyquinoline-Derived Mannich Bases with Tertiary Amines Targeting Multidrug-Resistant Cancer” (Journal of Medicinal Chemistry, 2022)
Structures can show the parent of a compound that is named as a salt. Where two headings read alike, the source gives them in different places.

Columns and labels:
[1] = tested on: A431 cells; test: PrestoBlue viability assay, A431 cells
[2] = tested on: MES-SA/Dx5 cells; test: PrestoBlue viability assay, MES-SA/Dx5 cells (MDR, P-gp positive); conditions: for SR_TQ: selectivity ratio MES-SA vs MES-SA/Dx5, with TQ; for SR: selectivity ratio MES-SA vs MES-SA/Dx5, without TQ; for SR (MES-SA_TQ / Dx5_TQ) (values in parentheses): presence of 1 μM TQ
[3] = tested on: MES-SA cells; test: PrestoBlue viability assay, MES-SA cells
[4] = tested on: A431-B1 cells; test: PrestoBlue viability assay, A431-B1 (A431-ABCB1) cells
[5] = cited from earlier work
[6] = UV-visible spectrophotometric titrations (pKa); format: physicochemical; conditions: water with 0.2% (v/v) DMSO, 25 °C
Method: Spectrophotometrical determination of pKa values was performed as previously reported.[20],[50] An Agilent Cary 8454 diode array spectrophotometer was used to record the UV–visible spectra in the interval 200–800 nm. The path length was between 1 and 5 cm. The spectrophotometric titrations were performed in water with 0.2% (v/v) DMSO on samples containing the compounds at 2–50 μM in the pH range from 2 to 11.5 at 25.0 ± 0.1 °C at an ionic strength of 0.10 M (KCl). Proton dissociation constants and the individual spectra of the species in the different protonation states were calculated with the computer program PSEQUAD.[62]

[7] = Homo sapiens, A-431, 72 h, read-out: IC50 / µM A431, 72 h incubation
[8] = Homo sapiens, A-431, read-out: pIC50 A431, SARM figure (converted)
[9] = Homo sapiens, MES-SA/Dx5, 72 h, read-out: IC50 / μM MES-SA/Dx5, absence of TQ, 72 h incubation
[10] = Homo sapiens, MES-SA/Dx5, read-out: IC50 / μM MES-SA/Dx5 (values in parentheses), presence of 1 μM P-gp inhibitor tariquidar (TQ)
[11] = Homo sapiens, MES-SA/Dx5, read-out: pIC50 value MES-SA/Dx5, MES-SA/Dx5 cells, without TQ (converted)
[12] = read-out: IC50 / μM MES-SA/Dx5 (values in parentheses), presence of 1 μM P-gp inhibitor tariquidar (TQ)
[13] = Homo sapiens, MES-SA, 72 h, read-out: IC50 / μM MES-SA, absence of TQ, 72 h incubation
[14] = Homo sapiens, MES-SA, read-out: IC50 / μM MES-SA (values in parentheses), presence of 1 μM P-gp inhibitor tariquidar (TQ)
[15] = Homo sapiens, MES-SA, read-out: pIC50 value MES-SA+TQ, MES-SA cells, with TQ (converted)
[16] = Homo sapiens, MES-SA, read-out: pIC50 value MES-SA, MES-SA cells, without TQ (converted)
[17] = 72 h, read-out: IC50 / µM A431-B1, 72 h incubation
[18] = read-out: pIC50 A431-B1, SARM figure (converted)
[19] = Homo sapiens, MES-SA/Dx5, read-out: pIC50 value MES-SA/Dx5 + TQ, MES-SA/Dx5 cells, with TQ (converted)
[20] = 0.2% DMSO, I = 0.10 M KCl, read-out: pKa (OH), experimentally determined
[21] = piperidinium / pyrrolidinium / morpholinium N, read-out: pKa (other; N+amH alkylamine nitrogen), experimentally determined
[22] = quinolinium nitrogen, I = 0.10 M KCl, read-out: pKa (NquinH+), experimentally determined
[23] = fraction of IC50 in P-gp negative vs positive cells

melting point [°C]	IC50 [1, 7] [µM]	IC50 [1, 8] [µM]	IC50 [4, 17] [µM]	IC50 [4, 18] [µM]	Structure (SMILES)	IC50 [2, 9] [µM]	IC50 [2, 10] [µM]	IC50 [2, 11] [µM]	SR_TQ [2]	SR [2]	IC50 [3, 13] [µM]	IC50 [3, 14] [µM]	IC50 [3, 15] [µM]	IC50 [3, 16] [µM]	also measured
203 to 206	–	–	–	–	Oc1cc2c(cc1O)CN(Cc1ccc3cccnc3c1O)CC2 (as salt: hydrochloride) [Compound 82, 2-((8-Hydroxy-quinolin-7-yl)methyl)-1,2,3,4-tetrahydroisoquinoline-6,7-diol Hydrochloride]	–	–	–	–	–	–	–	–	–	–
–	7.3 ± 0.98	9.77	1.62 ± 0.92	2.4	Oc1c(CN2CCCCC2)ccc2cccnc12 [Compound 3]	0.85 ± 0.18	2.69	0.832	1.56	6.13	5.21 ± 0.95	4.18	4.07	5.13	IC50 ([1]; read-out: IC50 / µM A431, 72 h incubation): 10.1 ± 2.95 µM; IC50 [2, 12]: 1.87 µM; IC50 ([2]; read-out: IC50 / μM MES-SA/Dx5, absence of TQ, 72 h incubation): 0.86 ± 0.19 µM; IC50 ([3]; read-out: IC50 / μM MES-SA (values in parentheses), presence of 1 μM P-gp inhibitor tariquidar (TQ)): 3.81 µM; IC50 ([3]; read-out: IC50 / μM MES-SA, absence of TQ, 72 h incubation): 5.46 ± 1.01 µM; IC50 ([4]; read-out: IC50 / µM A431-B1, 72 h incubation): 2.48 ± 0.7 µM; pKa (other; N+amH), experimental ([5]; water, 25 °C, ref 50 (Pape et al., Dalton Trans. 2018)): > 11
–	–	–	–	–	Oc1ccc(Cl)c2cccnc12 [Compound 13, reference compound]	5.15 ± 0.48	–	5.13	–	1.6	8.26 ± 0.1	–	–	8.32	pKa (OH), experimental ([5]; ref 59 (Mészáros et al., Dalton Trans. 2020)): 7.6
119 to 121	4.32 ± 0.39	4.27	1.54 ± 0.51	1.45	Oc1c(CN2CCCC2)cc(Br)c2cccnc12 [Compound 16, 5-Bromo-7-(pyrrolidin-1-ylmethyl)quinolin-8-ol]	0.41 ± 0.14	3.14 ± 0.89	0.389	1.46	9.45	3.9 ± 0.87	4.58 ± 1.05	4.47	3.8	–
–	7.53 ± 1	7.41	1.91 ± 0.18	1.91	CC(C)OCc1cc(CN2CCCCC2)c(O)c2ncccc12 [Compound 24]	0.48 ± 0.04	4.37 ± 0.24	0.479	1.32	12.57	6.03 ± 0.29	5.76 ± 0.15	5.75	6.03	IC50 [2, 19]: 4.37 µM; pKa [6, 20]: 7.66 ± 0.03; pKa [6, 21]: > 11; pKa [6, 22]: 2.43 ± 0.03
–	6.6 ± 3.57	5.75	2.42 ± 0.29	2.4	Oc1c(CN2CCOCC2)cc(Cl)c2cccnc12 [Compound 29]	0.82 ± 0.06	1.17 ± 0.01	0.813	1.41	1.86	1.52 ± 0.07	1.66 ± 0.02	1.66	1.51	pKa (NquinH+), experimental ([5]; water, 25 °C, ref 15 (Pape et al., Cancers 2021)): < 2
–	7.38 ± 1.23	7.24	6.31 ± 2.64	5.75	Oc1c(CN2CCN(c3ccccc3)CC2)cc(Cl)c2cccnc12 [Compound 38]	0.59 ± 0.26	1.87 ± 0.75	0.537	1.91	5.84	3.42 ± 1.17	3.57 ± 1.18	3.39	3.24	IC50 [2, 19]: 1.74 µM; pKa [6, 20]: 6.21 ± 0.03; pKa ([6]; read-out: pKa (NpiperaziniumH+ closer to quinoline ring), experimentally determined): 10.1 ± 0.03; pKa [6, 22]: 1.7 ± 0.1
155 to 157	4.74 ± 0.04	4.79	2.39 ± 0.02	2.4	Oc1c(CN2CCc3ccccc3C2)ccc2cccnc12 [Compound 51, 7-((3,4-Dihydroisoquinolin-2(1H)-yl)methyl)quinolin-8-ol]	1.04 ± 0.1	2.16 ± 0.31	1.05	1.37	3.03	3.16 ± 0.41	2.97 ± 0.31	2.95	3.16	IC50 [2, 19]: 2.14 µM; IC50 [2, 12]: 1.73 µM; pKa [6, 20]: 6.24 ± 0.03; pKa [6, 21]: 10.68 ± 0.03; pKa [6, 22]: 3.07 ± 0.03
156 to 159	–	–	–	–	Oc1c(CN2CCc3ccccc3C2)cc(Br)c2cccnc12 [Compound 81, 5-Bromo-7-((3,4-dihydroisoquinolin-2(1H)-yl)methyl)quinolin-8-ol]	0.34 ± 0.05	1.48	0.363	1.82	6.23	2.23 ± 0.15	2.45	1.78	2.29	SR (MES-SA / MES-SA/Dx5) ([2]; fraction of IC50 in P-gp negative vs positive cells, absence of TQ): 6.50; SR (MES-SA_TQ / Dx5_TQ) (values in parentheses) [2, 23]: 1.66
178 to 179	–	–	–	–	Oc1c(C(c2cccnc2)N2CCCCC2)ccc2cccnc12 (stereo not drawn) [Compound 92, 7-((Piperidine-1-yl)(pyridin-3-yl)methyl)quinolin-8-ol]	8.58 ± 0.38	–	8.51	–	1.59	13.65 ± 0.12	–	–	13.5	–

Structure (SMILES)	melting point [°C]	IC50 [1, 7] [µM]	IC50 [1, 8] [µM]	IC50 [4, 17] [µM]	IC50 [4, 18] [µM]	IC50 [2, 9] [µM]	IC50 [2, 10] [µM]	IC50 [2, 11] [µM]	SR_TQ [2]	SR [2]	IC50 [3, 13] [µM]	IC50 [3, 14] [µM]	IC50 [3, 15] [µM]	IC50 [3, 16] [µM]	also measured
CN1CCN(Cc2ccc3cccnc3c2O)CC1 [Compound 34, 7-((4-Methylpiperazin-1-yl)methyl)quinolin-8-ol]	120 to 122	25.5 ± 1.98	25.7	11.3 ± 0.95	11.2	8.67 ± 1.69	14.1	8.51	1.1	1.93	16.7 ± 1.86	15.5 ± 0.19	15.5	16.6	SR (MES-SA_TQ / Dx5_TQ) (values in parentheses) [2, 23]: 1.10
CN1CCN(Cc2ccc3ccccc3c2O)CC1 [Compound 70, 2-((4-Methylpiperazin-1-yl)methyl)naphthalen-1-ol]	79 to 81	–	–	–	–	> 100	–	–	–	–	> 100	–	–	–	–
CN1CCN(Cc2cnc3ccccc3c2O)CC1 [Compound 71, 3-((4-Methylpiperazin-1-yl)methyl)quinolin-4-ol]	164 to 166	–	–	–	–	91	–	91.2	–	1.04	94.9 ± 2.02	–	–	95.5	–
